According to patent publication US11884675B2, “Heterocyclic compounds as triggering receptor expressed on myeloid cells 2 agonists and methods of use” (AMGEN INC., priority 2020, dated 2024):

biological target: hTREM2 (Homo sapiens, UniProt Q9NZC2); test: TREM2 activity by cellular Syk phosphorylation (AlphaScreen/AlphaLISA) in TREM2/DAP12-HEK cells, used for Examples 1-305; format: cell-based; design: expressed in transfected cells; details: HEK293 Cells
In short: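 Single-cell-cloned HEK293 cells overexpressing TREM2 and DAP12, seeded 20 h, exposed to test articles (1% final DMSO) for 45 min at room temperature. Lysates read for phospho-Syk (Tyr525/526) vs total Syk by AlphaScreen. Signal normalised as percent of control between isotype IgG and 100 nM anti-TREM2 antibody; 4-parameter logistic fit.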

Sequence of hTREM2 (Q9NZC2 19-230): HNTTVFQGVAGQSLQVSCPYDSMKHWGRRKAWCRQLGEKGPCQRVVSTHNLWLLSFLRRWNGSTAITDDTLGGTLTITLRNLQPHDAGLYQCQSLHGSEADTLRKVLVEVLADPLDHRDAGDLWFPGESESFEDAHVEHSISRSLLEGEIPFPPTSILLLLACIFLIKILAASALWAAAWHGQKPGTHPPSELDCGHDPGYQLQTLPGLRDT
Sequence of hTREM2 (O43914 22-113 partner): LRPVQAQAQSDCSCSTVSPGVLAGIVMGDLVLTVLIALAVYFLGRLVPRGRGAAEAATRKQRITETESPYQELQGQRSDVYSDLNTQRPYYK

SMILES	EC50 [nM]	hTREM2 Emax
Cc1nc2nc([C@@H]3CCO[C@H](c4cnn(C)c4)C3)nc(C3CCC(F)(F)CC3)c2nc1C (single isomer, unassigned) [Example 175]	500 to 3000	++ (Emax>100 and ≤150)
Cc1nc2nc(N3CCO[C@@H](c4cnn(C)c4)C3)nc(N3CCCC(F)(F)C3)c2nc1C [Example 68, 4-(3,3-difluoro-1-piperidinyl)-6,7-dimethyl-2-((2S)-2-(1-methyl-1H-pyrazol-4-yl)-4-morpholinyl)pteridine]	3000 to 100000	–
Cc1nc2nc(N3CCO[C@@H](c4cnn(C)c4)C3)cc(-c3ccc(F)cc3F)c2nc1C [Example 161, 8-(2,4-difluorophenyl)-2,3-dimethyl-6-((2S)-2-(1-methyl-1H-pyrazol-4-yl)-4-morpholinyl)pyrido [2,3-b]pyrazine]	≤ 50	+++ (Emax>150 and ≤250)
COC1CN(c2nc(N3CCO[C@@H](c4cnn(C)c4)C3)nc3nc(C)c(C)nc23)C1 [Example 28, 4-(3-methoxy-1-azetidinyl)-6,7-dimethyl-2-((2S)-2-(1-methyl-1H-pyrazol-4-yl)-4-morpholinyl)pteridine]	500 to 3000	+++ (Emax>150 and ≤250)
Cc1cc([C@@H]2C[C@H](c3nc(-c4ccc(Cl)cc4F)c4nc(C)c(C)nc4n3)CCO2)ccn1 (single isomer, unassigned) [Example 206]	50 to 500	++++ (Emax>250)
Cc1ccc2c(n1)nc(N1CCO[C@@H](c3cnn(C)c3)C1)nc2[C@H]1CC[C@@H](C(F)(F)F)CC1 [Example 142, 7-methyl-2-((2S)-2-(1-methyl-1H-pyrazol-4-yl)-4-morpholinyl)-4-(cis-4-(trifluoromethyl)cyclohexyl)pyrido [2,3-d]pyrimidine]	3000 to 100000	++ (Emax>100 and ≤150)
Cc1ccc2cc(N3CCO[C@@H](c4cnn(C)c4)C3)nc(-c3ccc(Cl)cc3F)c2c1 [Example 236, (S)-4-(1-(4-chloro-2-fluorophenyl)-7-methylisoquinolin-3-yl)-2-(1-methyl-1H-pyrazol-4-yl)morpholine]	3000 to 100000	+++ (Emax>150 and ≤250)
Cc1ccc(-c2nc([C@@H]3CCO[C@H](c4cnn(C)c4)C3)nc3nc(C)c(C)cc23)c(F)c1 (single isomer, unassigned) [Example 202]	500 to 3000	++ (Emax>100 and ≤150)
COc1cc([C@H]2CN(c3cc4nc(C)cnc4c(-c4ccc(Cl)cc4F)n3)CCO2)ccn1 [Example 78, 5-(4-chloro-2-fluorophenyl)-7-((2S)-2-(2-methoxy-4-pyridinyl)-4-morpholinyl)-2-methylpyrido[3,4-b]pyrazine]	50 to 500	+++ (Emax>150 and ≤250)
Cc1nc2nc(N3CCO[C@@H](c4cnn(C5CC5)c4)C3)nc([C@H]3C[C@H](C(F)(F)F)C3)c2nc1C [Example 50, 2-((2S)-2-(1-cyclopropyl-1H-pyrazol-4-yl)-4-morpholinyl)-6,7-dimethyl-4-(trans-3-(trifluoromethyl)cyclobutyl)pteridine]	≤ 50	+++ (Emax>150 and ≤250)
Cc1cc2c(-c3ccc(Cl)cc3F)nc([C@H]3CCO[C@@H](c4cnn(C5CC5)c4)C3)nc2nc1C (single isomer, unassigned) [Example 199]	≤ 50	++++ (Emax>250)
Cc1nc2nc([C@@H]3CCO[C@@H](c4cnn(C)c4)C3)nc([C@H]3C[C@H](C(F)(F)F)C3)c2nc1C (single isomer, unassigned) [Example 204]	500 to 3000	++++ (Emax>250)
Cc1cc2c(-c3ccc(F)cc3F)nc([C@@H]3CCO[C@@H](c4cnn(C)c4)C3)nc2nc1C [Example 267, 4-(2,4-difluorophenyl)-6,7-dimethyl-2-((2R,4R)-2-(1-methyl-1H-pyrazol-4-yl)tetrahydro-2H-pyran-4-yl)pyrido[2,3-d]pyrimidine]	500 to 3000	++ (Emax>100 and ≤150)
Cc1cc([C@H]2CN(c3nc4nc(C)c(C)cc4c([C@H]4C[C@H](C(F)(F)F)C4)n3)CCO2)ccn1 [Example 115, 6,7-dimethyl-2-((2S)-2-(2-methyl-4-pyridinyl)-4-morpholinyl)-4-(trans-3-(trifluoromethyl)cyclobutyl)pyrido[2,3-d]pyrimidine]	≤ 50	++ (Emax>100 and ≤150)
Cc1cnc2c(-c3ccc(Cl)cc3F)nc(N3CCO[C@@H](c4cnn(C5CC5)c4)C3)nc2n1 [Example 2, 4-(4-chloro-2-fluorophenyl)-2-((2S)-2-(1-cyclopropyl-1H-pyrazol-4-yl)-4-morpholinyl)-7-methylpteridine]	≤ 50	+++ (Emax>150 and ≤250)
Cc1nc2nc(N3CCO[C@@H]([C@@H]4CCOC4)C3)nc(-c3ccc(F)cc3F)c2nc1C (single isomer, unassigned) [Example 34]	500 to 3000	+++ (Emax>150 and ≤250)

SMILES	EC50 [nM]	hTREM2 Emax
Cc1nc2nc(N3CCO[C@@H]([C@H]4CCOC4)C3)nc(-c3ccc(F)cc3F)c2nc1C [Example 251, (S)-4-(4-(2,4-difluorophenyl)-6,7-dimethylpteridin-2-yl)-2-((S)-tetrahydrofuran-3-yl)morpholine]	500 to 3000	+++ (Emax>150 and ≤250)
Cc1cc([C@H]2CN(c3cc(-c4ccc(Cl)cc4F)c4nc(C)c(C)nc4c3)CCO2)ccn1 [Example 163, 5-(4-chloro-2-fluorophenyl)-2,3-dimethyl-7-((2S)-2-(2-methyl-4-pyridinyl)-4-morpholinyl) quinoxaline]	≤ 50	++++ (Emax>250)
Cc1nc2nc(N3CCO[C@@H](c4cnn(C)c4)C3)nc([C@H]3C[C@H](C(F)F)C3)c2nc1C [Example 45, 4-(trans-3-(difluoromethyl)cyclobutyl)-6,7-dimethyl-2-((2S)-2-(1-methyl-1H-pyrazol-4-yl)-4-morpholinyl)pteridine]	50 to 500	++ (Emax>100 and ≤150)
Cc1nc2nc([C@H]3CCO[C@H](c4cnn(C)c4)C3)cc(-c3ccc(Cl)cc3F)c2nc1C (single isomer, unassigned) [Example 186]	500 to 3000	+++ (Emax>150 and ≤250)
Cc1cc(F)ccc1-c1nc(N2CCO[C@@H](c3cnn(C)c3)C2)nc2nc(C)c(C)nc12 [Example 59, 4-(4-fluoro-2-methylphenyl)-6,7-dimethyl-2-((2S)-2-(1-methyl-1H-pyrazol-4-yl)-4-morpholinyl)pteridine]	50 to 500	+++ (Emax>150 and ≤250)
Cc1nc2nc([C@H]3CCO[C@@H](c4cnn(C)c4)C3)nc(C3CCC(F)(F)CC3)c2nc1C (single isomer, unassigned) [Example 176]	≤ 50	+++ (Emax>150 and ≤250)
Cc1ncc2c(-c3ccc(Cl)cc3F)cc(N3CCO[C@@H](c4cnn(C)c4)C3)cc2n1 [Example 153, 5-(4-chloro-2-fluorophenyl)-2-methyl-7-((2S)-2-(1-methyl-1H-pyrazol-4-yl)-4-morpholinyl) quinazoline]	50 to 500	+++ (Emax>150 and ≤250)
Cc1nc2nc(N3CCO[C@@H](c4cnn(C)c4)C3)nc(C3=CC[C@@H](C(F)(F)F)CC3)c2nc1C (single isomer, unassigned) [Example 127]	≤ 50	++ (Emax>100 and ≤150)
Cc1cc([C@H]2CN(c3cc(-c4ccc(F)cc4F)c4cnc(C)nc4c3)CCO2)ccn1 [Example 154, 5-(2,4-difluorophenyl)-2-methyl-7-((2S)-2-(2-methyl-4-pyridinyl)-4-morpholinyl) quinazoline]	50 to 500	++++ (Emax>250)
Cc1ccc(-c2cc([C@@H]3CCO[C@H](c4cnn(C)c4)C3)nc3nc(C)c(C)nc23)c(F)c1 (single isomer, unassigned) [Example 189]	500 to 3000	+++ (Emax>150 and ≤250)
Cc1cnc2c(n1)nc(N1CCO[C@@H](c3cnn(C4CC4)c3)C1)nc2[C@H]1C[C@H](C(F)(F)F)C1 [Example 13, 2-((2S)-2-(1-cyclopropyl-1H-pyrazol-4-yl)-4-morpholinyl)-7-methyl-4-(trans-3-(trifluoromethyl)cyclobutyl)pteridine]	≤ 50	+ (Emax>45 and ≤100)
Cc1ccc(-c2cc([C@H]3CCO[C@@H](c4cnn(C)c4)C3)nc3nc(C)c(C)nc23)c(F)c1 (single isomer, unassigned) [Example 190]	≤ 50	+++ (Emax>150 and ≤250)
Cc1ccc(-c2cc([C@H]3CCO[C@H](c4cnn(C)c4)C3)nc3nc(C)c(C)nc23)c(F)c1 [Example 266, 8-(2-fluoro-4-methylphenyl)-2,3-dimethyl-6-((2S,4S)-2-(1-methyl-1H-pyrazol-4-yl)tetrahydro-2H-pyran-4-yl)pyrido[2,3-b]pyrazine]	500 to 3000	++++ (Emax>250)
Cc1nc2nc(N3CCO[C@@H](c4cnn(C)c4)C3)nc(-c3ccc(F)cn3)c2nc1C [Example 292, (S)-4-(4-(5-fluoropyridin-2-yl)-6,7-dimethylpteridin-2-yl)-2-(1-methyl-1H-pyrazol-4-yl)morpholine]	500 to 3000	+++ (Emax>150 and ≤250)
Cc1cc([C@H]2CN(c3nc(-c4ccc(C(F)(F)F)nc4)c4nc(C)c(C)nc4n3)CCO2)cnn1 [Example 299, (S)-4-(6,7-dimethyl-4-(6-(trifluoromethyl)pyridin-3-yl)pteridin-2-yl)-2-(6-methylpyridazin-4-yl)morpholine]	≤ 50	+++ (Emax>150 and ≤250)
Cc1cc([C@H]2C[C@@H](c3nc(-c4ccc(Cl)cc4F)c4ncc(C)nc4n3)CCO2)ccn1 (single isomer, unassigned) [Example 171]	≤ 50	+++ (Emax>150 and ≤250)
